From publication doi:10.1101/2024.05.26.595989v1 (biorxiv, 2024) come the findings set out here.

The target in experiment [1] is T1, PDI (PDIA1), purified / recombinant wild-type human PDI (Homo sapiens, UniProt P07237). As to the kind of experiment: biochemical.
Experiment [2] deals with T1, PDI (PDIA1), purified / recombinant wild-type human PDI. As to the kind of experiment: biochemical. The source holds these as a separate data set.

Where two headings read alike, the source gives them in different places.

T1 sequence (P07237 18-508): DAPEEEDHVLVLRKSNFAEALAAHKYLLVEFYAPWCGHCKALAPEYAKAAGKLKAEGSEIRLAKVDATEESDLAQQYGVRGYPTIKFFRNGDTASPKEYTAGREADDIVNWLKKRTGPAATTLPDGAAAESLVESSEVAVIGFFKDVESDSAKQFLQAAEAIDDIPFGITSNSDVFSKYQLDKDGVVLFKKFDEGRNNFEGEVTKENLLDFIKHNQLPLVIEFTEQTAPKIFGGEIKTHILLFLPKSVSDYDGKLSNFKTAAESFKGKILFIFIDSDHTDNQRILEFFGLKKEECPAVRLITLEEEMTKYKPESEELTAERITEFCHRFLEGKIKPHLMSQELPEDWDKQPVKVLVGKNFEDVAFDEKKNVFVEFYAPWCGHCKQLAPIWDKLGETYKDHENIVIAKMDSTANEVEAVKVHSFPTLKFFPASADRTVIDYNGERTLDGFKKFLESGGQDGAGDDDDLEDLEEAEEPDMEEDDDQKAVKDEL

`C[C@]12CC[C@@H]3c4cc(O)c(O)cc4CC[C@H]3[C@@H]1CCC2=O` [2-OH-E1, 1,3,5([10])-Estratrien-2,3-diol-17-one]: the Kd in experiment [1] came to 24.2 nM.
As to `C[C@]12CC[C@@H]3c4cc(O)c(O)cc4CC[C@H]3[C@@H]1CC[C@@H]2O` [2-OH-E2, 1,3,5([10])-estratrien-2,3,17β-triol], the equilibrium dissociation constant (Kd) in experiment [2] is 61.3 to 68.3 nM.
